Test system: PBMC
Assay: 193 ssRNA 4mer-motif library screen: IL-12 (IL-12p40) production in PBMC of six donors, poly-L-Arg complexation, ELISA at 44 hours, IL-12 index and adjusted IL-12 index
Assay type: cell-based, human
Parameters: key to Adjusted IL-12 index Mean: IL-12 index (ratio to 9.2sense) minus donor mean, averaged over 6 donors
Conditions: 193 ssRNA oligonucleotide library; data from six individual donors summarized; ascending order
Method: FIG. 9: PBMC of six different healthy donors were isolated and stimulated with poly-L-arginine complexed ssRNA oligonucleotides in duplicates. 44 hours after stimulation IL-12p40 production was assessed in supernatant via ELISA. For all tested ssRNA oligonucleotides (table 3), the mean values of the measured duplicates were normalized to the positive control ssRNA oligonucleotide 9.2sense (5′-AGCUUAACCUGUCCUUCAA (SEQ ID NO: 194)) by dividing the mean value of tested oligonucleotide by the mean value of 9.2sense (=IL-12 index of a given oligonucleotide). Next, all individual IL-12 indices were adjusted to the mean value of all IL-12 indices by subtracting the mean value of all IL-12 indices from the individual IL-12 index of a given oligonucleotide (=adjusted IL-12 index). Data from six individual donors were summarized and were assorted in ascending order displaying the corresponding SEM (for a complete listing including numerical data see table 4). FIG. 9A discloses SEQ ID NOS 460-509, respectively, in order of appearance. FIG. 9B discloses SEQ ID NOS 510-559, respectively, in order of appearance. FIG. 9C discloses SEQ ID NOS 560-609, respectively, in order of appearance. FIG. 9D discloses SEQ ID NOS 610-652, respectively, in order of appearance.
All 193 ssRNA oligonucleotides were tested on PBMC of six individual healthy donors using poly-L-Arg for complexation. At 44 hours after stimulation with RNA oligonucleotides, supernatants were collected and IL-12 production was measured by ELISA. Prior to statistical analysis the raw data were processed as follows: for each cell culture plate the mean IL-12 value of the experimental duplicates for each tested ssRNA oligonucleotide were normalized to the ssRNA oligonucleotide RNA9.2sense (5′-AGCUUAACCUGUCCUUCAA-3′ (SEQ ID NO: 194)). This standard RNA oligonucleotide was included as a positive control on all cell culture plates. Normalization was performed by calculating the ratio of IL-12 induced by the tested oligonucleotide and IL-12 induced by the standard oligonucleotide RNA9.2sense. Thus, for each tested oligonucleotide in an individual donor a mean ratio of IL-12 induction was obtained. In the following, this mean of the ratios is referred to as IL-12 index (one value of IL-12 index per donor). […] The corresponding IL-12 index of oligonucleotide ANP175 for donor 3 was calculated to be 1.90 (=1725 pg/ml divided by 908 pg/ml).
Next, the means of all IL-12 indices for every individual donor were calculated. Then the adjusted IL-12 indices were calculated as IL-12 index minus the mean of all IL-12 indices of one individual donor. […] The adjusted IL-12 index of ANP175 was calculated: 1.90 minus 0.44=1.46. The adjusted IL-12 indices from all six donors were summarized by calculating the means and the corresponding standard error of mean. The data are depicted in ascending order (FIG. 9A, B, C, D). The adjusted IL-12 indices of the top thirty ssRNA oligonucleotides of all six donors were compared using a two-tailed Student's t-test (FIG. 10). For most combinations tested, a significant difference was observed when the interval between the analyzed pairs was at least eight or nine places in the assortment.

Sequence | Adjusted IL-12 index Mean
AAAAAAACCCUAAAAAAAA (RNA, backbone not given here) [ANP-Oligo 067] | −0.3
AAAAAAACGUCAAAAAAAA (RNA, backbone not given here) [ANP-Oligo 083] | −0.27
AAAAAAACGGGAAAAAAAA (RNA, backbone not given here) [ANP-Oligo 081] | −0.63
AAAAAAAUGAGAAAAAAAA (RNA, backbone not given here) [ANP-Oligo 171] | 0.22
AAAAAAAACUCAAAAAAAA (RNA, backbone not given here) [ANP-Oligo 023] | −0.41
AAAAAAAUGAUAAAAAAAA (RNA, backbone not given here) [ANP-Oligo 172] | 1.92
AAAAAAACACUAAAAAAAA (RNA, backbone not given here) [ANP-Oligo 055] | −0.53
AAAAAAAUUCUAAAAAAAA (RNA, backbone not given here) [ANP-Oligo 187] | 0.18
AAAAAAAUCUUAAAAAAAA (RNA, backbone not given here) [ANP-Oligo 169] | 0.67
AAAAAAAGUCUAAAAAAAA (RNA, backbone not given here) [ANP-Oligo 139] | 0.05
AAAAAAACUCGAAAAAAAA (RNA, backbone not given here) [ANP-Oligo 090] | −0.54
AAAAAAAACGAAAAAAAAA (RNA, backbone not given here) [ANP-Oligo 006] | −0.63
AAAAAAACGAGAAAAAAAA (RNA, backbone not given here) [ANP-Oligo 075] | −0.65
AAAAAAAACCUAAAAAAAA (RNA, backbone not given here) [ANP-Oligo 019] | −0.51
AAAAAAACAGCAAAAAAAA (RNA, backbone not given here) [ANP-Oligo 056] | −0.54
AAAAAAAUAGCAAAAAAAA (RNA, backbone not given here) [ANP-Oligo 152] | 0.35
AAAAAAAAAAAAAAAAAAA (RNA, backbone not given here) [ANP-Oligo 001] | −0.48
AAAAAAAGUAUAAAAAAAA (RNA, backbone not given here) [ANP-Oligo 136] | 1.04
AAAAAAAGGCCAAAAAAAA (RNA, backbone not given here) [ANP-Oligo 125] | −0.54
AAAAAAAACCAAAAAAAAA (RNA, backbone not given here) [ANP-Oligo 005] | −0.62

Sequence | Adjusted IL-12 index Mean
AAAAAAAUGCCAAAAAAAA (RNA, backbone not given here) [ANP-Oligo 173] | 1.22
AAAAAAAAGUGAAAAAAAA (RNA, backbone not given here) [ANP-Oligo 036] | −0.12
AAAAAAACAUGAAAAAAAA (RNA, backbone not given here) [ANP-Oligo 060] | −0.46
AAAAAAACGAUAAAAAAAA (RNA, backbone not given here) [ANP-Oligo 076] | 0.02
AAAAAAACAGGAAAAAAAA (RNA, backbone not given here) [ANP-Oligo 057] | −0.6
AAAAAAAGAAUAAAAAAAA (RNA, backbone not given here) [ANP-Oligo 100] | 0.01
AAAAAAAAUGCAAAAAAAA (RNA, backbone not given here) [ANP-Oligo 044] | 0.2
AAAAAAACCCGAAAAAAAA (RNA, backbone not given here) [ANP-Oligo 066] | −0.62
AAAAAAAGCGGAAAAAAAA (RNA, backbone not given here) [ANP-Oligo 117] | −0.63
AAAAAAAGUCCAAAAAAAA (RNA, backbone not given here) [ANP-Oligo 137] | −0.27
AAAAAAAAUCUAAAAAAAA (RNA, backbone not given here) [ANP-Oligo 043] | −0.22
AAAAAAAGGGUAAAAAAAA (RNA, backbone not given here) [ANP-Oligo 130] | −0.44
AAAAAAAAUACAAAAAAAA (RNA, backbone not given here) [ANP-Oligo 038] | −0.32
AAAAAAAGAAGAAAAAAAA (RNA, backbone not given here) [ANP-Oligo 099] | −0.61
AAAAAAAUAAGAAAAAAAA (RNA, backbone not given here) [ANP-Oligo 147] | 0.27
AAAAAAAUACCAAAAAAAA (RNA, backbone not given here) [ANP-Oligo 149] | 0.27
AAAAAAAUGUCAAAAAAAA (RNA, backbone not given here) [ANP-Oligo 179] | 0.9
AAAAAAAUCGUAAAAAAAA (RNA, backbone not given here) [ANP-Oligo 166] | 4.42
AAAAAAAGUGUAAAAAAAA (RNA, backbone not given here) [ANP-Oligo 142] | 1.23
AAAAAAAUAUCAAAAAAAA (RNA, backbone not given here) [ANP-Oligo 155] | 0.33

Sequence | Adjusted IL-12 index Mean
AAAAAAAGUGCAAAAAAAA (RNA, backbone not given here) [ANP-Oligo 140] | 0.99
AAAAAAAAUAGAAAAAAAA (RNA, backbone not given here) [ANP-Oligo 039] | −0.05
AAAAAAAUCACAAAAAAAA (RNA, backbone not given here) [ANP-Oligo 158] | −0.39
AAAAAAAAGUAAAAAAAAA (RNA, backbone not given here) [ANP-Oligo 010] | −0.16
AAAAAAAUGUUAAAAAAAA (RNA, backbone not given here) [ANP-Oligo 181] | 0.79
AAAAAAACGACAAAAAAAA (RNA, backbone not given here) [ANP-Oligo 074] | −0.6
AAAAAAAGCAUAAAAAAAA (RNA, backbone not given here) [ANP-Oligo 112] | 0.08
AAAAAAAUAACAAAAAAAA (RNA, backbone not given here) [ANP-Oligo 146] | −0.16
AAAAAAAGCAGAAAAAAAA (RNA, backbone not given here) [ANP-Oligo 111] | −0.32
AAAAAAAGCGUAAAAAAAA (RNA, backbone not given here) [ANP-Oligo 118] | 0.1
AAAAAAACCGUAAAAAAAA (RNA, backbone not given here) [ANP-Oligo 070] | −0.16
AAAAAAAGGGGAAAAAAAA (RNA, backbone not given here) [ANP-Oligo 129] | −0.51
AAAAAAAAGAAAAAAAAAA (RNA, backbone not given here) [ANP-Oligo 003] | −0.63
AAAAAAAGAACAAAAAAAA (RNA, backbone not given here) [ANP-Oligo 098] | −0.6
AAAAAAAUGACAAAAAAAA (RNA, backbone not given here) [ANP-Oligo 170] | 0.86
AAAAAAAAGGUAAAAAAAA (RNA, backbone not given here) [ANP-Oligo 034] | 2.21
AAAAAAAGCUCAAAAAAAA (RNA, backbone not given here) [ANP-Oligo 119] | −0.48
AAAAAAACUUGAAAAAAAA (RNA, backbone not given here) [ANP-Oligo 096] | −0.14

Same assay, conditions: summarized from all six donors

Sequence | adjusted IL-12 index
AAAAAAAUCGUAAAAAAAA (RNA, backbone not given here) [ANP-Oligo 166] | 4.42
